{
  "source": "patent US5965619A",
  "about": "“Method for treating patients having precancerous lesions with substituted indene derivatives” (Cell Pathways Inc., priority 1997, dated 1999)",
  "key": {"[1]": {"tested_on": "human colon carcinoma cell line, HT-29", "experiment": "HT-29 tumor cell growth inhibition, Sulforhodamine B (SRB) protein binding assay", "format": "cell-based", "conditions": "144 h, six days continuous exposure", "protocol": "These compounds were assayed for their effect on the human colon carcinoma cell line, HT-29 obtained from ATCC, (Rockville, Md.) to ascertain the degree of growth inhibition. Growth inhibition of this cell line is indicative of a benefit on precancerous lesions and neoplasms. The cell line and growth assay employed for these experiments is well characterized, and is used by the United States National Cancer Institute in its screening program for new anti-cancer drugs.\nDrug stock solutions were made in 100% DMSO then diluted with RPMI media for cell culture testing. All drug solutions were prepared fresh on the day of testing. The cultured cells were obtained at passage #118 and grown in RPMI media supplemented with 5% fetal calf serum, and 2 mM glutamine, 100 U/ml penicillin, 100 U/ml streptomycin, and 0.25 μg/ml amphotericin. The cultures were maintained in a humidified atmosphere of 95% air and 5% CO2 at 37° C. The cultures were passaged at preconfluent densities using a solution of 0.05% trypsin and 0.53 mM EDTA. All experiments involved HT-29 cells between passages 120 and 140. Cells were plated at the following densities to obtain cultures used for the experiments: 500 cells/well for 96 well flat-bottom microtiter plates, 1×10^6 cells per 25 cm^2 flask.\nTumor cell growth inhibition was assessed using the Sulforhodamine B (SRB) protein binding assay. In this assay, tumor cells were plated in 96-well plates and treated with drug-containing media for six days (continuous exposure). For each plate, 6 wells were designated as no treatment controls, six wells as vehicle (0.1% DMSO) controls, and the remaining wells for drug dilutions with six wells per drug concentration. At the end of the exposure period, the cells were fixed and stained with sulforhodamine B, a protein binding dye. The dye was then solubilized, and the optical density of the resulting solution was determined on a 96-well plate reader. The mean dye intensity of the treated wells was then divided by the mean dye intensity in the control wells (6 wells of each) to determine the effect of the drug on the cells. Dye intensity is proportional to the number of cells or amount of protein per well. The resultant \"percent inhibition\" value then represents the degree of growth inhibition caused by the drug.\nFor each experiment, an IC50 value was determined and used for comparative purposes. This value is equivalent to the concentration of drug needed to inhibit tumor cell growth by 50%. IC50 values were obtained graphically by connecting the mean values for each drug concentration tested. Each experiment included at least six wells per drug concentration. Concentration was plotted on a log scale on the X-axis."}, "purified COX": {"tested_on": "purified COX", "experiment": "Cyclooxygenase (COX) inhibition, purified COX from ram seminal vesicles", "format": "biochemical", "conditions": "100 μM dose; arachidonic acid 100 uM, 2.0 min at 37° C.", "protocol": "Compounds of this invention, as well as several others (sce Table 2 below), were evaluated to determine whether they inhibited the production of prostaglandin according to the procedure below. COX is involved in the formation of prostaglandins and thromboxane by the oxidative metabolism of arachidonic acid. […] Briefly, purified COX was incubated with arachidonic acid (100 uM) for 2.0 min at 37° C. in the presence or absence of test compounds. The assay was terminated by the addition of TCA, and COX activity was determined by absorbance at 530 nm."}, "[2]": {"tested_on": "DMBA-Induced Mammary Lesions", "experiment": "Mouse mammary gland organ culture, DMBA-induced mammary lesions", "format": "cell-based, mouse (female BALB/c)", "conditions": "15 glands per group", "protocol": "The compound of Example No. 17(d) was also tested for its ability to inhibit the incidence of mammary lesions in an organ culture system. This mouse mammary gland organ culture technique has been successfully used by other investigators to study the effects of known cancer-chemopreventativeagents such as retinoids and selenium.\nFemale BALB/c mice, 28 days old, were treated for nine days with a combination of 1 μg of estradiol and 1 mg of progesterone daily, in order to prime the glands to be responsive to hormones in vitro. The animals were sacrificed and thoracic mammary glands were excised aseptically and incubated for ten days in growth media supplemented with growth-promoting hormones: insulin, prolactin, and hydrocortisone, at 5 μg/ml each and aldosterone at 1 μg/ml. A twenty-four hour treatment of 7,12-dimethylbenz(a)anthracene (DMBA, 2 μg/ml) was carried out between days three and four to induce the formation of mammary lesions. Fully developed glands were deprived of prolactin, hydrocortisone, and aldosterone for 14 days, resulting in the regression of the glands but not the mammary lesions.\nIn order to evaluate the effects of Compound No. 17(d), it was dissolved in DMSO and added to the culture media supplemented for the duration of the culture period. At the end of the culture period, the glands were fixed in 10% formalin, stained with alum carmine, and mounted on glass slides. The incidence of forming mammary lesions is the ratio of the glands with mammary lesions and glands without lesions. The incidence of mammary lesions in compound 17(d) treated glands was compared with that of the untreated glands.\nThe extent of the area occupied by the mammary lesions was quantitated by projecting an image of the gland onto a digitation pad. The area covered by the gland was traced on the pad and considered as 100% of the area, The space covered by each of the unregressed structures was also outlined on the digitization pad and quantitated by the computer."}, "prostaglandin synthesis": {"tested_on": "prostaglandin synthesis", "conditions": "cited from earlier work"}, "precancerous lesions": {"tested_on": "precancerous lesions", "conditions": "cited from earlier work"}, "colonic polyps": {"tested_on": "colonic polyps", "conditions": "cited from earlier work"}},
  "data": [
    {"smiles": "COc1ccc(/C=C2/C(C)=C(CC(=O)O)c3cc(F)ccc32)cc1", "note": "[16(e), (Z)-5-fluoro-2-methyl-1-(p-methoxy-benzylidene)-3-indenylacetic acid]", "values": [
      {"measurement": "IC50", "setting": "[1]", "value": 29, "unit": "µM"}
    ]},
    {"smiles": "CC1=C(CC(=O)O)c2cc(F)ccc2/C1=C\\c1ccccc1", "note": "[17(a), (Z)-5-fluoro-2-methyl-1-benzylidene-3-indenylacetic acid]", "values": [
      {"measurement": "IC50", "setting": "[1]", "value": 40, "unit": "µM"}
    ]},
    {"smiles": "CC1=C(CC(=O)O)c2cc(F)ccc2/C1=C\\c1ccc(Cl)cc1", "note": "[17(b), (Z)-5-fluoro-2-methyl-1-(4-chlorobenzylidene)-3-indenylacetic acid]", "values": [
      {"measurement": "IC50", "setting": "[1]", "value": 58, "unit": "µM"}
    ]},
    {"smiles": "COc1cc(OC)c(/C=C2/C(C)=C(CC(=O)O)c3cc(F)ccc32)c(OC)c1", "note": "[17(e), (Z)-5-fluoro-2-methyl-1-(2,4,6-trimethoxybenzylidene)-3-indenylacetic acid]", "values": [
      {"measurement": "IC50", "setting": "[1]", "value": 61, "unit": "µM"}
    ]},
    {"smiles": "COc1ccc(/C=C2/C(C)=C(CC(=O)O)c3cc(F)ccc32)c(OC)c1OC", "note": "[17(f), (Z)-5-fluoro-2-methyl-1-(2,3,4-trimethoxybenzylidene)-3-indenylacetic acid]", "values": [
      {"measurement": "IC50", "setting": "[1]", "value": 40, "unit": "µM"}
    ]},
    {"smiles": "COc1cc(OC)c(OC)cc1/C=C1/C(C)=C(CC(=O)O)c2cc(F)ccc21", "note": "[17(g), (Z)-5-fluoro-2-methyl-1-(2,4,5-trimethoxybenzylidene)-3-indenylacetic acid]", "values": [
      {"measurement": "IC50", "setting": "[1]", "value": 40, "unit": "µM"}
    ]},
    {"smiles": "CC1=C(CC(=O)O)c2cc(F)ccc2/C1=C\\c1c(Cl)cccc1Cl", "note": "[17(h), (Z)-5-fluoro-2-methyl-1-(2,6-dichlorobenzylidene)-3-indenylacetic acid]", "values": [
      {"measurement": "IC50", "setting": "[1]", "value": 31, "unit": "µM"}
    ]},
    {"smiles": "COc1cc(/C=C2/C(C)=C(CC(=O)O)c3cc(F)ccc32)cc(OC)c1OC", "note": "[Example 17(d), (Z)-5-fluoro-2-methyl-1-(3,4,5-trimethoxybenzylidene)-3-indenylacetic acid]", "values": [
      {"measurement": "IC50", "setting": "[1]", "value": 39, "unit": "µM"},
      {"measurement": "% Inhibition", "setting": "purified COX", "value": "No inhibition"},
      {"measurement": "Glands with Lesions", "setting": "[2]; 10 μm", "value": 5},
      {"measurement": "Percent Incidence", "setting": "[2]; 10 μm", "value": 33.33, "unit": "%"},
      {"measurement": "Glands with Lesions", "setting": "[2]; 100 μm", "value": 0},
      {"measurement": "Percent Incidence", "setting": "[2]; 100 μm", "value": 0.00, "unit": "%"}
    ]},
    {"smiles": "CSc1ccc(/C=C2/C(C)=C(CC(=O)O)c3cc(F)ccc32)cc1", "note": "[Sulindac Sulfide, reference compound]", "values": [
      {"measurement": "% Inhibition", "setting": "purified COX", "value": 86, "unit": "%"},
      {"measurement": "activity as inhibitor of prostaglandin synthesis", "setting": "prostaglandin synthesis", "value": "active moiety as a prostaglandin synthesis inhibitor"}
    ]},
    {"smiles": "CC1=C(CC(=O)O)c2cc(F)ccc2/C1=C\\c1ccc(S(C)(=O)=O)cc1", "note": "[sulfone]", "values": [
      {"measurement": "activity as inhibitor of precancerous lesions", "setting": "precancerous lesions", "value": "active as an inhibitor of precancerous lesions"},
      {"measurement": "activity as inhibitor of prostaglandin synthesis", "setting": "prostaglandin synthesis", "value": "inactive as an inhibitor of prostaglandin synthesis"}
    ]},
    {"smiles": "CC1=C(CC(=O)O)c2cc(F)ccc2/C1=C\\c1ccc([S+](C)[O-])cc1", "note": "(stereo not drawn) [sulindac]", "values": [
      {"measurement": "effect on polyps when patients take the drug", "setting": "colonic polyps", "value": "Polyps virtually disappear"}
    ]}
  ]
}
